Reference: patent publication US4758558A, “N-(substituted)-[7-(2-cyanoacetamido)cephalosporanic]amide derivatives having antibiotic utility” (priority 1982, dated 1988)

Columns and labels:
[1] = system: Staphylococcus aureus IAM 1011; test: Antibacterial activity in vitro (MIC) against Staphylococcus aureus; format: cell-based; conditions: IAM1011, Mueller-Hinton agar, 18 to 24 hours, 37° C., read-out: MIC (minimum growth inhibiting concentration) against Staphylococcus aureus
Outline: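 Agar dilution MIC per Japan Society of Chemotherapy standard: compound dilutions mixed with 9 parts Mueller-Hinton medium to make plates, bacteria streaked ~2 cm with platinum loop. Incubated 18 to 24 hours at 37° C; MIC = lowest concentration completely inhibiting growth.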

[2] = system: Staphylococcus aureus IAM 1011; test: Treatment of experimental infectious disease in mouse due to Staphylococcus aureus; format: in vivo, ddY SPE mice; conditions: oral, two times just after and 4 hours after inoculation; 2.3×10^8 cells i.p.
From the text: (§1) (e) Effectiveness in treating experimental infectious disease due to bacteria:
(§2) (Refer to Example 22 for the details of the test.) As the result, while all the twenty mice artificially infected with each of the two bacterial species and not-treated with any of the present compound died on the second day of inoculation, more than 40% of the twenty mice artificially infected with each of the two bacterial species and administered with each of the three present compounds were alive even after 7 days of inoculation.
(§3) Effectiveness of the present compound in treatment of an experimental infectious disease in mouse
(2) Disease due to infection of Staphylococcus aureus
Each mouse of the two groups (20 animals/group) of ddY SPE mice was inoculated with 2.3×10^8 cells of Staphylococcus aureus IAM 1011 intraperitoneally, and then, each mouse of the one of the two groups was administered orally with one of the present compounds, namely the compound produced in Example 5, 10 or 13, two times just after and 4 hours after the inoculation, while the 20 mice of the other group were not administered.

[3] = system: Escherichia coli IFO 12734; test: Antibacterial activity in vitro (MIC) against Escherichia coli; format: cell-based; conditions: IFO12734, Mueller-Hinton agar, 18 to 24 hours, 37° C., read-out: MIC (minimum growth inhibiting concentration) against Escherichia coli
Outline: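 Agar-dilution MIC by the Japan Society of Chemotherapy standard method: compound dilutions mixed 1:9 with Mueller-Hinton agar, strains streaked about 2 cm with a loop. Plates incubated 18 to 24 hours at 37° C. MIC is the lowest concentration giving complete growth inhibition.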

[4] = system: a species of Lactobacillus; test: Effect on intestinal bacteria: number of a sp. of Lactobacillus in feces; format: in vivo, ICR mice; conditions: mouse, in vivo, po, 500 mg/kg/day
Outline: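 Female ICR mice (6 weeks, five per group) received compound orally at 500 mg/kg/day for 2 days. Feces taken before and one day after dosing were diluted 100-fold in anaerobic phosphate buffer and plated on LBS agar. Lactobacillus colonies were counted after 5 days at 37° C.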

[5] = system: a species of Streptococcus; test: Effect on intestinal bacteria: number of a sp. of Streptococcus in feces; format: in vivo, ICR mice; conditions: mouse, in vivo, po, 500 mg/kg/day
Outline: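 Female ICR mice aged 6 weeks (five per group) received compound orally at 500 mg/kg/day for 2 days. Feces collected before dosing and one day after were diluted 100-fold in anaerobic phosphate buffer and plated on TATAC agar. Streptococcus colonies were counted after one day at 37 °C.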

[6] = system: Escherichia coli IFO 12734; test: Treatment of experimental infectious disease in mouse due to Escherichia coli; format: in vivo, ddY SPE mice; conditions: oral, two times just after and 4 hours after inoculation; 1.4×10^8 cells i.p.
From the text: as §1, §2, §3
(1) Disease due to infection of Escherichia coli
Each mouse of the two groups (20 animals/group) of ddY SPE mice was inoculated with 1.4×10^8 cells of Escherichia coli IFO 12734 intraperitoneally, and then, each mouse of the one of the two groups was administered orally with one of the present compounds, namely the compound produced in Example 5, 10 or 13, two times just after and 4 hours after the inoculation, while the 20 mice of the other group were not administered.

Lactobacillus bifidus = test: Effect on intestinal bacteria: number of Lactobacillus bifidus in feces; format: in vivo, ICR mice; conditions: mouse, in vivo, po, 500 mg/kg/day
Outline: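 Female ICR mice aged 6 weeks (five per group) were dosed orally with compound at 500 mg/kg/day for 2 days. Feces taken before and one day after dosing were diluted 100-fold in anaerobic phosphate buffer and plated. Bacterial counts determined after incubation, BS agar at 37 °C for 5 days.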

a species of Bacteroides = test: Effect on intestinal bacteria: number of a sp. of Bacteroides in feces; format: in vivo, ICR mice; conditions: mouse, in vivo, po, 500 mg/kg/day
Outline: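 Five female ICR mice (6 weeks old) per group received compound orally at 500 mg/kg/day for 2 days. Feces taken before and one day after dosing were diluted 100-fold in anaerobic phosphate buffer, and 0.1 ml was plated on NBGT agar. Bacteroides colonies were counted after 5 days at 37 °C.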

Escherichia coli = test: Effect on intestinal bacteria: number of Escherichia coli in feces; format: in vivo, ICR mice; conditions: after oral administration for 2 days, 500 mg/kg/day, female ICR mice; before: 6.4
Pseudomonas aeruginosa = test: Effect on intestinal bacteria: number of Pseudomonas aeruginosa in feces; format: in vivo, ICR mice; conditions: mouse, in vivo, po, 500 mg/kg/day
Outline: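 Female ICR mice aged 6 weeks, five per group, were dosed orally for 2 days at 500 mg/kg/day. Feces were taken before dosing and one day after. Specimens were diluted 100-fold in anaerobic phosphate buffer, ground, plated on selective media (NAC agar, 37° C, one day), and colonies were counted.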

| SMILES | MIC [1] [mg/L] | mice alive on the 7th day of inoculation (Staphylococcus aureus infection) [2] | MIC [3] [mg/L] | Number of a sp. of Lactobacillus after the administration [4] | Number of a sp. of Streptococcus after the administration [5] | mice alive on the 7th day of inoculation (Escherichia coli infection) [6] | Number of Lactobacillus bifidus after the administration (Lactobacillus bifidus) | Number of a sp. of Bacterioides after the administration (a species of Bacteroides) | Number of Escherichia coli after the administration (Escherichia coli) | Number of Pseudomonas aeruginosa after the administration (Pseudomonas aeruginosa) |
| --- | --- | --- | --- | --- | --- | --- | --- | --- | --- | --- |
| COC(=O)c1ccc(NC(=O)C2=C(CSc3nnc(C)s3)CSC3C(NC(=O)Cn4cnnn4)C(=O)N23)cc1 (stereo not drawn) [Example 13, N-(4-carbomethoxyphenyl)-{7-(1-1H-tetrazolylacetamido)-3-[2-(5-methyl-1,3,4-thiadiazolyl)thiomethyl]-3-cephem-4-carboxylic}amide] | ≥ 12.5 | more than 60% | ≥ 100 | 9.0 Log10 (number of bacteria/g feces) | 6.6 Log10 (number of bacteria/g feces) | more than 80% | 8.4 Log10 (number of bacteria/g feces) | 8.7 Log10 (number of bacteria/g feces) | 6.4 Log10 (number of bacteria/g feces) | < 3.0 Log10 (number of bacteria/g feces) |
| COC(=O)CNC(=O)c1ccc(NC(=O)C2=C(C)CSC3C(NC(=O)[C@H](N)c4ccccc4)C(=O)N23)cc1 (stereo partly drawn) [Example 5, N-(4-carbomethoxymethylcarbamoylphenyl)-[7-(D-alpha-aminophenylacetamido)desacetoxycephalosporanic]amide] | ≥ 100 | more than 65% | ≥ 100 | 8.9 Log10 (number of bacteria/g feces) | 6.7 Log10 (number of bacteria/g feces) | more than 60% | 8.4 Log10 (number of bacteria/g feces) | 8.4 Log10 (number of bacteria/g feces) | 6.5 Log10 (number of bacteria/g feces) | < 3.0 Log10 (number of bacteria/g feces) |
| CC(=O)OCC1=C(C(=O)Nc2ccc(C)cc2)N2C(=O)C(NC(=O)CC#N)C2SC1 (stereo not drawn) [Example 10, N-(4-methylphenyl)-[7-(2-cyanoacetamido)caphalosporanic]amide] | ≥ 100 | more than 85% | ≥ 100 | 9.0 Log10 (number of bacteria/g feces) | 6.8 Log10 (number of bacteria/g feces) | more than 80% | 8.2 Log10 (number of bacteria/g feces) | 8.9 Log10 (number of bacteria/g feces) | 6.8 Log10 (number of bacteria/g feces) | < 3.0 Log10 (number of bacteria/g feces) |
